# Laboratory results: patent publication US20240315991A1, “USES OF HNF4 ALPHA AGONISTS” (Sanford Burnham Prebys Medical Discovery Institute, priority 2023, published 2024)
# How the values were obtained:
# cytochrome C mRNA = assay: RT-PCR of mouse liver, cytochrome C; format: in vivo; conditions: HFD vs. HFD+NCT, FIG. 3G
# Protocol: (§1) NCT oral administration. Four-week-old male C57BL/6J (JAX cat #000664) mice were purchased from Jackson laboratory and were maintained in a 12 h light/dark cycle throughout the experiment. Prior to the experiments, mice were acclimated for 2 weeks. Six-week-old mice with similar body weights were randomized to a normal diet (NC), a high fat diet (HFD) (Research Diets, cat #D12492 60 kcal % fat) or HFD containing 4000 ppm NCT (HFD+NCT) (Research Diets, 60 kcal % fat+4000 ppm NCT), which was calculated to provide approximately 400 mg/kg/d NCT. HFD chow containing NCT was made with gray dye to distinguish it from regular HFD chow that had green dye. Mice for each treatment group were placed in separate cages. Equal amounts of fresh chow were provided every week to all mice. Body weight gain and food intake were measured every week for 10 weeks. After 10 weeks of chow treatment, mice were sacrificed for analysis. […]
# (§2) RT-PCR. […] Quantitative real time PCR (RT-PCR) analysis was performed using SYBR® Select Master Mix (Applied Biosystems) and an ABI 7900HT thermal cycler (Applied Biosystems, Thermo Fisher Scientific). Ct values were normalized to 18s rRNA and are expressed as fold change over samples from mice fed NC or cultured human hepatocytes without NCT.
# SDHA = assay: Western blotting of liver, SDHA; format: in vivo, mouse; conditions: HFD+NCT vs HFD, FIGS. 3D-3F
# Protocol: NCT oral administration. Four-week-old male C57BL/6J (JAX cat #000664) mice were purchased from Jackson laboratory and were maintained in a 12 h light/dark cycle throughout the experiment. Prior to the experiments, mice were acclimated for 2 weeks. Six-week-old mice with similar body weights were randomized to a normal diet (NC), a high fat diet (HFD) (Research Diets, cat #D12492 60 kcal % fat) or HFD containing 4000 ppm NCT (HFD+NCT) (Research Diets, 60 kcal % fat+4000 ppm NCT), which was calculated to provide approximately 400 mg/kg/d NCT. HFD chow containing NCT was made with gray dye to distinguish it from regular HFD chow that had green dye. Mice for each treatment group were placed in separate cages. Equal amounts of fresh chow were provided every week to all mice. Body weight gain and food intake were measured every week for 10 weeks. After 10 weeks of chow treatment, mice were sacrificed for analysis. All animal experiments were approved by the Institutional Animal Care and Use Committee (IACUC) of the Sanford Burnham Prebys Medical Discovery Institute in accordance with national regulations. Sample size was chosen based on the prior study of NCT delivered by IP injection.
# Western blotting. Mouse liver extracts were prepared by incubation in RIPA buffer (Invitrogen) containing protease inhibitors (Calbiochem, SanDiego, CA). Protein was quantified by BCA assay (Thermo Scientific). […]
# SDHA mRNA = assay: RT-PCR of primary human hepatocytes, SDHA; format: cell-based; conditions: HEP-fat media, NCT 5, 15, and 40 μM, FIGS. 3I and 3J
# Protocol: (§3) Primary human hepatocytes. Experiments with primary human hepatocytes were performed by CN-Bio (Cambridge, UK). Briefly, primary human hepatocytes (PHHs), human Kupffer cells (HKs) and human stellate cells (HSCs) were seeded onto CN-Bio's PhysioMimix LC12 MPS culture plates at 6×10^5 cells for PHHs and 6×10^4 cells for HKs and HSCs in 1.6 ml of CN-Bio's HEP-lean media with 5% FCS. Throughout the experiment the cells were maintained at a flow rate of 1 μl/s. After 24 hours (Day 1) of seeding, the media was changed to HEP-lean media and the cells were incubated until day 4 to allow the cells to form microtissues. At day 4 post seeding, media was changed to HEP-fat media and treated with DMSO or NCT (5, 15, and 40 μM). Media was replaced on days 6 and 8. Cells were harvested on day 10 for RNA extraction and culture media was collected for ELISA analysis.
# as §2
# HNF4α = target: T1, HNF4α (Mus musculus, UniProt P49698); assay: HNF4α immunofluorescence of liver sections; format: in vivo; conditions: C57BL/6 mice, HFD containing 4000 ppm NCT (approximately 400 mg/kg/d), oral, 10 weeks, vs HFD
# T1 construct: from tissue; host or cells: liver of C57BL/6J mice
# T1 sequence (P49698 whole entry): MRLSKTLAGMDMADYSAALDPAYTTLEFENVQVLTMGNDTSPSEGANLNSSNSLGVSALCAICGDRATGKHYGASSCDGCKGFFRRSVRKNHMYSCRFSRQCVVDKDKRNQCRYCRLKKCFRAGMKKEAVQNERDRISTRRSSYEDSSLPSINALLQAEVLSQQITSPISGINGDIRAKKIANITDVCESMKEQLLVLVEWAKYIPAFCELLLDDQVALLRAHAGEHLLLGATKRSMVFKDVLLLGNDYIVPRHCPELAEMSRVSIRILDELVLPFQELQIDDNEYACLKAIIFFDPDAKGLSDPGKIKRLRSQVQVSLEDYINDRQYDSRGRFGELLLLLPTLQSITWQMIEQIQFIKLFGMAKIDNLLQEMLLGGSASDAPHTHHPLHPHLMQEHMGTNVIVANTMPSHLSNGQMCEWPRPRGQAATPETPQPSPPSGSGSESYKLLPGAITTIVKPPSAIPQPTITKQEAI
# Protocol: as §1, with “Equal amounts of fresh chow were provided every week to all mice.” left out, “weeks.” for “weeks. After 10 weeks of chow treatment, mice were sacrificed for analysis.”
# Immunofluorescence. […] Slides were mounted using fluorescence mounting medium and images were obtained at ×40 magnification using an Olympus IX71 fluorescence microscope. Fluorescence intensity of HNF4α-stained nuclei and VDAC stained mitochondria was calculated using MetaMorph TL software (version 7.6.5.0, Olympus). Fold change was calculated by normalizing to values from mice fed NC.
# C57BL/6 mice were fed normal chow (NC), a high fat diet (HFD), or a high fat diet containing 4000 ppm NCT (HFD+NCT) for 10 weeks. […] The fold change was calculated vs. NC (NC, N=3, HFD and HFD+NCT, N=12). […]
# [1] = system: mice maintained on a 60% fat calorie diet; conditions: intraperitoneal injection for 2 weeks; cited from earlier work
# IL-6 mRNA = assay: RT-PCR of primary human hepatocytes, IL-6; format: cell-based; conditions: HEP-fat media, NCT 5, 15, and 40 μM, FIG. 5E
# Protocol: as §3, §2
structure (smiles),measurement,setting,value
"O=C(/C=C/c1ccc(O)c(O)c1)NCCc1ccc(O)cc1 [NCT, N-trans caffeoyltyramine]",cytochrome C mRNA levels in mouse livers,cytochrome C mRNA,non-significant
same,SDHA protein level in liver,SDHA,reverse the depression
same,SDHA mRNA in human hepatocytes,SDHA mRNA,increase
same,HNF4α expression in liver (HNF4α fluorescence intensity),HNF4α,reversed
same,body weight loss,[1],no body weight loss
same,fat stored in liver,[1],reduce
same,IL-6 mRNA level in cultured human hepatocytes,IL-6 mRNA,decrease
